Test results taken from PubChem BioAssay (NCI).
“And” between values parts separate entries of the source, which are not always exact repeats. Equal values may be shown once.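 Dose response: 5 concentrations. Exposure: 48 h. Format: 96-well plates. Endpoint: linear interpolation; highest concentration if not reached. The concentration for 50% growth inhibition is given as GI50. TGI denotes the concentration required for complete inhibition of growth.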

Columns and labels:
Assay in all cases: NCI anticancer screen, dose series, 48 h
HOP-62 NSCLC = tested on: HOP-62 NSCLC
K-562 leukemia = tested on: K-562 leukemia
MALME-3M melanoma = tested on: MALME-3M melanoma
MCF7 breast = tested on: MCF7 breast
OVCAR-5 ovarian = tested on: OVCAR-5 ovarian
RXF 393 renal = tested on: RXF 393 renal
SF-268 CNS = tested on: SF-268 CNS
SK-MEL-28 melanoma = tested on: SK-MEL-28 melanoma
SNB-19 CNS = tested on: SNB-19 CNS
UACC-257 melanoma = tested on: UACC-257 melanoma
MDA-MB-231 breast = tested on: MDA-MB-231 breast
MDA-N = tested on: MDA-N
PC-3 prostate = tested on: PC-3 prostate

SMILES | TGI (HOP-62 NSCLC) | TGI (K-562 leukemia) | TGI (MALME-3M melanoma) | TGI (MCF7 breast) | TGI (OVCAR-5 ovarian) | TGI (RXF 393 renal) | TGI (SF-268 CNS) | TGI (SK-MEL-28 melanoma) | TGI (SNB-19 CNS) | TGI (UACC-257 melanoma) | TGI (MDA-MB-231 breast) | TGI (MDA-N) | TGI (PC-3 prostate) | GI50 (MALME-3M melanoma) | GI50 (MCF7 breast) | GI50 (MDA-MB-231 breast) | GI50 (RXF 393 renal) | GI50 (SF-268 CNS) | GI50 (SNB-19 CNS)
CC1=C2C3OC(=O)C(C)C3CCC2(C)C=CC1=Nc1ccccc1 (stereo unspecified) | > 100 µM | > 100 µM | > 100 µM | > 100 µM | > 100 µM | > 100 µM | > 100 µM | > 100 µM | > 100 µM | > 100 µM |  |  |  |  |  |  |  |  | 
CCOC(=O)C(OP(=O)(OCC)OCC)C(F)(F)F (stereo unspecified) | > 100 µM | > 100 µM | > 100 µM | > 100 µM | > 100 µM | > 100 µM | > 100 µM | > 100 µM | > 100 µM | > 100 µM | > 100 µM | > 100 µM |  |  |  |  |  |  | 
c1ccc([P+](c2ccccc2)(c2ccccc2)C2c3ccccc3-c3ccccc32)cc1 | 4.7 µM | > 100 µM | 15.1 µM | 10 µM | 42 µM | 5.06 µM | 9.37 µM | 8.03 µM | 10.3 µM | 5.91 µM | 6.84 µM | 7.84 µM | 5.46 µM |  |  |  |  |  | 
CCOC(=O)C(CCc1ncnc2c1ncn2Cc1ccccc1)(CCc1ncnc2c1ncn2Cc1ccccc1)C(=O)OCC | > 100 µM | > 100 µM | > 100 µM | > 100 µM | > 100 µM | > 100 µM | > 100 µM | > 100 µM | > 100 µM | > 100 µM | > 100 µM | > 100 µM | > 100 µM |  |  |  |  |  | 
CC(=O)Nc1ccc(Sc2nnc(NC(C)=O)s2)cc1 | > 100 µM | > 100 µM |  | > 100 µM | > 100 µM |  | > 100 µM | > 100 µM | > 100 µM | > 100 µM | > 100 µM | > 100 µM | > 100 µM |  |  |  |  |  | 
O=c1ccnc2ccc3n[nH][nH]c3c12 | > 100 µM | > 100 µM | > 100 µM |  | > 100 µM | > 100 µM | > 100 µM | > 100 µM | > 100 µM | > 100 µM |  |  |  |  |  |  |  |  | 
CCCCCCCCOC(=O)c1cc([N+](=O)[O-])c(Sc2ncnc3nc[nH]c23)c([N+](=O)[O-])c1 | 21.8 µM | 7.8 µM | 19.9 µM | 12.1 µM | 13.8 µM | > 47.6 µM | 8.47 µM | 42.8 µM | 32.9 µM | 28 µM | > 31.6 µM | 22.5 µM | 13.8 µM |  |  |  |  |  | 
COc1cc2c[n+](C)c3c4cc(OC)c(OC)cc4ccc3c2cc1OC | > 100 µM | > 100 µM | > 100 µM | > 100 µM | > 100 µM | > 100 µM | > 100 µM and 37.6 µM | > 100 µM | > 100 µM | > 100 µM | > 100 µM |  | > 100 µM | > 100 µM and 21.7 µM | 35.6 µM and 8.35 µM | > 100 µM and 18.6 µM | > 100 µM and 28.5 µM | 22.6 µM and 3.32 µM | 80 µM and 13.5 µM
C=CCCCCCCCCC(=O)O | 168 µM | 426 µM | 302 µM | 452 µM | 351 µM | 207 µM | 254 µM | 322 µM | 362 µM | 492 µM |  |  |  |  |  |  |  |  | 
CN(C(=O)c1ccc(OCCCC(=O)O)c(Cl)c1Cl)C1CCCC1 | > 100 µM | > 100 µM | > 100 µM | > 100 µM | > 100 µM | > 100 µM | > 100 µM | > 100 µM | > 100 µM | > 100 µM |  |  |  |  |  |  |  |  | 
Cn1c(=O)c(Cl)c(N=[N+]=[N-])c2ccccc21 | > 100 µM | > 100 µM | > 100 µM | > 100 µM | > 100 µM | > 100 µM | > 100 µM | > 100 µM | > 100 µM | > 100 µM | > 100 µM | > 100 µM | > 100 µM |  |  |  |  |  | 
COC1=CC(=O)C2=C(C[C@@]3(C)C(=C2)C(CO)=CC[C@H]3O)C1=O | 49.6 µM | 24 µM | > 100 µM | 32.3 µM | 54.5 µM | 30.9 µM | 32.7 µM | 82.7 µM | > 100 µM | 36.9 µM | 13.2 µM | 37.4 µM | 69.1 µM |  |  |  |  |  | 
CC(=O)OCC1OC(n2nc(Cc3ccccc3)c(=S)[nH]c2=S)C(OC(C)=O)C(OC(C)=O)C1OC(C)=O (stereo unspecified) | 51.4 µM | > 100 µM | 83.9 µM | 72.7 µM | > 100 µM | 44.6 µM | 52.2 µM | > 100 µM | 78.8 µM | 37.8 µM | 30.6 µM |  | > 100 µM |  |  |  |  |  | 
CNC(=O)NS(=O)(=O)c1ccc(C)cc1 | > 100 µM | > 100 µM | > 100 µM | > 100 µM | > 100 µM | > 100 µM | > 100 µM | > 100 µM | > 100 µM | > 100 µM | > 100 µM | > 100 µM | > 100 µM |  |  |  |  |  | 
O=c1oc2ccc([N+](=O)[O-])cc2cc1Br | > 100 µM | > 100 µM | > 100 µM | > 100 µM | > 100 µM | > 100 µM | > 100 µM | > 100 µM | > 100 µM | > 100 µM | > 100 µM | > 100 µM | > 100 µM |  |  |  |  |  | 
O=[N+]([O-])c1cccc(N=Nc2c(O)ccc3ccccc23)c1 | > 100 µM | > 100 µM | > 100 µM |  | > 100 µM | > 100 µM | > 100 µM | > 100 µM | 75.5 µM | > 100 µM | > 100 µM | > 100 µM | > 100 µM |  |  |  |  |  | 
O=c1c([OH2+])c(-c2ccc(O)cc2[O-])oc2cc(O)cc([O-])c12.O=c1c([OH2+])c(-c2ccc(O)cc2[O-])oc2cc(O)cc([O-])c12.[Ti+4] | > 100 µM | > 100 µM | > 100 µM |  | > 100 µM | > 100 µM | > 100 µM | > 100 µM | > 100 µM | > 100 µM |  |  |  |  |  |  | > 100 µM |  | 
CCN1CCC(O)(c2ccc(O)cc2)C(C(=O)c2ccc(O)cc2)C1 (stereo unspecified) | > 100 µM | 33.8 µM | 38.8 µM | 10.9 µM | 35.6 µM | 30.7 µM | > 100 µM | 31.7 µM | > 100 µM | 32.4 µM | 31.1 µM |  |  |  |  |  |  |  | 
O=C1O/C(=C\c2ccc(O)cc2)C(c2ccc(O)c(Cl)c2)=C1Cl | > 100 µM | > 100 µM | 74.5 µM | 47.4 µM | > 100 µM | 73 µM | > 100 µM | > 100 µM | > 100 µM | > 100 µM | > 100 µM | 68 µM | > 100 µM |  |  |  |  |  | 
CCOC(=O)C(=O)NC12CC3CC(CC(C3)C1)C2 | > 100 µM | > 100 µM | > 100 µM |  | > 100 µM | > 100 µM | > 100 µM | > 100 µM | > 100 µM | > 100 µM |  |  |  |  |  |  |  |  | 
O=[N+]([O-])C(=C/c1cccs1)/C(=C\c1cccs1)[N+](=O)[O-] | 5.39 µM | > 100 µM | 4.82 µM | 7.72 µM | 7.21 µM | 0.486 µM | 10.4 µM | 2.32 µM | 5.16 µM | 3.46 µM | 0.864 µM | 2.65 µM |  |  |  |  |  |  | 
CC[C@H](C)[C@H](NC(=O)[C@@]1(O)[C@H](O)[C@]2(CC)C=CCN3CC[C@@]4(c5cc(Br)c(OC)cc5N(C)[C@@H]14)[C@@H]32)C(=O)OC | > 100 µM | > 100 µM | 83.7 µM | > 100 µM | > 100 µM | > 100 µM | > 100 µM | 38.7 µM | > 100 µM | 62.1 µM | 46.5 µM | > 100 µM | > 100 µM |  |  |  |  |  | 
COC(=O)C1=NN2c3ccccc3CN([C@@H](C)c3ccccc3)C(=O)[C@@H]2[C@H]1c1ccccc1 | > 100 µM | > 100 µM | > 100 µM | > 100 µM | > 100 µM | > 100 µM | > 100 µM | > 100 µM | > 100 µM | > 100 µM | > 100 µM | > 100 µM | > 100 µM |  |  |  |  |  | 
